Measured values published in PMC8138761 (The Journal of Biological Chemistry, 2021).

What was measured:
Type in all cases: biochemical
Details in all cases: read-out: % inhibition at 10 μM
[1] = molecular target: cyclin-dependent kinase 5 (CDK5) (Homo sapiens, UniProt Q00535); experiment: in vitro FRET kinase profiling at […], duplicate
[2] = molecular target: cyclin-dependent kinase (CDK) 1 (Homo sapiens, UniProt P06493); experiment: in vitro FRET kinase profiling at […], duplicate
[3] = molecular target: checkpoint kinase-2 (CHK2) (Homo sapiens, UniProt O96017); experiment: in vitro FRET kinase profiling at […], duplicate
[4] = molecular target: T1, serine/threonine protein kinase-4 (MST1) (Homo sapiens, UniProt Q13043); experiment: in vitro FRET kinase profiling at […], duplicate
T1 sequence (Q13043 1-487): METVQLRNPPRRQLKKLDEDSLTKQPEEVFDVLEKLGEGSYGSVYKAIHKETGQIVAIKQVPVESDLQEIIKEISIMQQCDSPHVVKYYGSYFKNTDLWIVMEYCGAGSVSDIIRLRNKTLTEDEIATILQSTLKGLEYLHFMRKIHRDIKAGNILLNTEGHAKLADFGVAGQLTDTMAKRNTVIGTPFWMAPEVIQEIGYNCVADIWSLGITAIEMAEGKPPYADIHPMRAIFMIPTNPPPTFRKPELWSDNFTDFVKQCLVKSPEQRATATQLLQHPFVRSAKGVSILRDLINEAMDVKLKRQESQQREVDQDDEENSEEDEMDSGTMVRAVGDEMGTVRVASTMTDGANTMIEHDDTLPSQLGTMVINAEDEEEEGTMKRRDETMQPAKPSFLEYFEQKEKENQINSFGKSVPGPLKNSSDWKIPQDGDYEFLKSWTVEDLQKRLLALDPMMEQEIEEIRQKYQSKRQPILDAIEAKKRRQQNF

[5] = molecular target: T2, checkpoint kinase-1 (CHK1) (Homo sapiens, UniProt O14757); experiment: in vitro FRET kinase profiling at […], duplicate
T2 sequence (O14757 1-476): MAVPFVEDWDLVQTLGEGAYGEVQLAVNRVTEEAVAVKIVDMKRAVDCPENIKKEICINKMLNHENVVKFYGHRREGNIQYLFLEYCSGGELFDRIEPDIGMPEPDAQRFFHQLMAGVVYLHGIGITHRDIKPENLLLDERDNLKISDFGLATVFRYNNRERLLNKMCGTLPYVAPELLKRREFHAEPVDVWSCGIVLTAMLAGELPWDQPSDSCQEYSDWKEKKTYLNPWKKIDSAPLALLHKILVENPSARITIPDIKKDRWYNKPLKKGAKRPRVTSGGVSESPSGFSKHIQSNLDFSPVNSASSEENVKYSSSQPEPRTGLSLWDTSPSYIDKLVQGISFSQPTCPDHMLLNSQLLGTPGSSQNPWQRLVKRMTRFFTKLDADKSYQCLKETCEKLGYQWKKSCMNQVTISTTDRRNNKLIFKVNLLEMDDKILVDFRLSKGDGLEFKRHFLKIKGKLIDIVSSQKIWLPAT

[6] = molecular target: serine/threonine protein kinase-24 (MST3) (Homo sapiens, UniProt Q9Y6E0); experiment: in vitro FRET kinase profiling at […], duplicate
[7] = molecular target: T3, serine/threonine kinase D2 (Homo sapiens, UniProt Q9BZL6); experiment: in vitro FRET kinase profiling at […], duplicate
T3 sequence (Q9BZL6 1-878): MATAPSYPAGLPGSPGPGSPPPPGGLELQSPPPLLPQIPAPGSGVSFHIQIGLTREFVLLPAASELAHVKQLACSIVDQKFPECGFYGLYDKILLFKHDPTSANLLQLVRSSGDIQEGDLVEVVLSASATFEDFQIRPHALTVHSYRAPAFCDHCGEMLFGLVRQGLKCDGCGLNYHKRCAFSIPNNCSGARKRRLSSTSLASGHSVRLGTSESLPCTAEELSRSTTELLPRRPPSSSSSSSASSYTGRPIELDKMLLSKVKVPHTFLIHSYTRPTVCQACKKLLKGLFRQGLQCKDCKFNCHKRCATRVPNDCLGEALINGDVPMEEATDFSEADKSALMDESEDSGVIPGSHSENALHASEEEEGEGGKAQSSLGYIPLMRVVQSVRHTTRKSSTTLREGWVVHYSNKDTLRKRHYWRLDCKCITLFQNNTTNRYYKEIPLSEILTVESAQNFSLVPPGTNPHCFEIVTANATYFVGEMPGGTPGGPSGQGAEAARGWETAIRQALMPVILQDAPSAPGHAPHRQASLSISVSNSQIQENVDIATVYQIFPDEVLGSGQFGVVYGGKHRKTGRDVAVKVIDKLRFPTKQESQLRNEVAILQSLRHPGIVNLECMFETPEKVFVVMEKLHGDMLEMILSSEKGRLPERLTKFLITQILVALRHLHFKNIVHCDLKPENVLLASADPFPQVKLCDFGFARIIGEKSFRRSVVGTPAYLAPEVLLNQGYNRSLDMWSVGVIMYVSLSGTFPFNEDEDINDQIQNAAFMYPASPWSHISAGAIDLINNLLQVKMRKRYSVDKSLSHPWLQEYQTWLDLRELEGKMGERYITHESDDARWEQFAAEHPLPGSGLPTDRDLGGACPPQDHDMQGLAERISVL

[8] = molecular target: leucine-rich repeat kinase-2 (LRRK2) (Homo sapiens, UniProt Q5S007); experiment: in vitro FRET kinase profiling at […], duplicate
[9] = molecular target: glycogen synthase kinase 3-beta (GSK3-β) (Homo sapiens, UniProt P49841); experiment: in vitro FRET kinase profiling
[10] = molecular target: T4, serine/threonine protein kinase-3 (MST2) (Homo sapiens, UniProt Q13188); experiment: in vitro FRET kinase profiling at […], duplicate
T4 sequence (Q13188 1-491): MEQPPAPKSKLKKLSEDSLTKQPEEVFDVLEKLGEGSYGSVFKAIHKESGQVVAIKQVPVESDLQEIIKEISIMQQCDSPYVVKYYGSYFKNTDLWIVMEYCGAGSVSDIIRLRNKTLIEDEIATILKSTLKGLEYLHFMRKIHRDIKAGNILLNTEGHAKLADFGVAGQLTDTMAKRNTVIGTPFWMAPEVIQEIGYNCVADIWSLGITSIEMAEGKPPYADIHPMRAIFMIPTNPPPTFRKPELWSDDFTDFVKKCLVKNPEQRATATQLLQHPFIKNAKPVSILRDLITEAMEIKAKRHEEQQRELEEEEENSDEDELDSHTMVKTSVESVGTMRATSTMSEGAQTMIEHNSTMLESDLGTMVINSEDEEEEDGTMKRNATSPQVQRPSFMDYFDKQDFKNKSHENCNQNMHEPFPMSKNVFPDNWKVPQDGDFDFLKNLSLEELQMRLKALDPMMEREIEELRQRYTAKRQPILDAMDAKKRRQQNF

Sequence of cyclin-dependent kinase 5 (CDK5) (Q00535 whole entry): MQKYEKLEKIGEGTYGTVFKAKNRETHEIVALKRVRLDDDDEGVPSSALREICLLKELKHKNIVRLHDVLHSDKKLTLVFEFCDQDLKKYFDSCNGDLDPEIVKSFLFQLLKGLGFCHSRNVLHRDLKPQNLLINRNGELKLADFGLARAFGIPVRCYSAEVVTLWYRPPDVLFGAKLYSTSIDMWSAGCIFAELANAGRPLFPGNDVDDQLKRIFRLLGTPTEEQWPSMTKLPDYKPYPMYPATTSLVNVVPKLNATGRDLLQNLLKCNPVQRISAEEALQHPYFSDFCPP
Sequence of cyclin-dependent kinase 5 (CDK5) (Q15078 2-307 partner): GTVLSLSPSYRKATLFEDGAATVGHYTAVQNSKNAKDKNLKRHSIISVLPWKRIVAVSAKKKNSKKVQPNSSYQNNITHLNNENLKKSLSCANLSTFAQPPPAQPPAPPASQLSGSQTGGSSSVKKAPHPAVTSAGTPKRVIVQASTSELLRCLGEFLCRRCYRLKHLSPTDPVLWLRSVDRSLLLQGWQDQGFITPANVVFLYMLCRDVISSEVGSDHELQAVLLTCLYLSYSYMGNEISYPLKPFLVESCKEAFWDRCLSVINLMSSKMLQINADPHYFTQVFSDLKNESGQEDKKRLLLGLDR
Sequence of leucine-rich repeat kinase-2 (LRRK2) (Q5S007 whole entry): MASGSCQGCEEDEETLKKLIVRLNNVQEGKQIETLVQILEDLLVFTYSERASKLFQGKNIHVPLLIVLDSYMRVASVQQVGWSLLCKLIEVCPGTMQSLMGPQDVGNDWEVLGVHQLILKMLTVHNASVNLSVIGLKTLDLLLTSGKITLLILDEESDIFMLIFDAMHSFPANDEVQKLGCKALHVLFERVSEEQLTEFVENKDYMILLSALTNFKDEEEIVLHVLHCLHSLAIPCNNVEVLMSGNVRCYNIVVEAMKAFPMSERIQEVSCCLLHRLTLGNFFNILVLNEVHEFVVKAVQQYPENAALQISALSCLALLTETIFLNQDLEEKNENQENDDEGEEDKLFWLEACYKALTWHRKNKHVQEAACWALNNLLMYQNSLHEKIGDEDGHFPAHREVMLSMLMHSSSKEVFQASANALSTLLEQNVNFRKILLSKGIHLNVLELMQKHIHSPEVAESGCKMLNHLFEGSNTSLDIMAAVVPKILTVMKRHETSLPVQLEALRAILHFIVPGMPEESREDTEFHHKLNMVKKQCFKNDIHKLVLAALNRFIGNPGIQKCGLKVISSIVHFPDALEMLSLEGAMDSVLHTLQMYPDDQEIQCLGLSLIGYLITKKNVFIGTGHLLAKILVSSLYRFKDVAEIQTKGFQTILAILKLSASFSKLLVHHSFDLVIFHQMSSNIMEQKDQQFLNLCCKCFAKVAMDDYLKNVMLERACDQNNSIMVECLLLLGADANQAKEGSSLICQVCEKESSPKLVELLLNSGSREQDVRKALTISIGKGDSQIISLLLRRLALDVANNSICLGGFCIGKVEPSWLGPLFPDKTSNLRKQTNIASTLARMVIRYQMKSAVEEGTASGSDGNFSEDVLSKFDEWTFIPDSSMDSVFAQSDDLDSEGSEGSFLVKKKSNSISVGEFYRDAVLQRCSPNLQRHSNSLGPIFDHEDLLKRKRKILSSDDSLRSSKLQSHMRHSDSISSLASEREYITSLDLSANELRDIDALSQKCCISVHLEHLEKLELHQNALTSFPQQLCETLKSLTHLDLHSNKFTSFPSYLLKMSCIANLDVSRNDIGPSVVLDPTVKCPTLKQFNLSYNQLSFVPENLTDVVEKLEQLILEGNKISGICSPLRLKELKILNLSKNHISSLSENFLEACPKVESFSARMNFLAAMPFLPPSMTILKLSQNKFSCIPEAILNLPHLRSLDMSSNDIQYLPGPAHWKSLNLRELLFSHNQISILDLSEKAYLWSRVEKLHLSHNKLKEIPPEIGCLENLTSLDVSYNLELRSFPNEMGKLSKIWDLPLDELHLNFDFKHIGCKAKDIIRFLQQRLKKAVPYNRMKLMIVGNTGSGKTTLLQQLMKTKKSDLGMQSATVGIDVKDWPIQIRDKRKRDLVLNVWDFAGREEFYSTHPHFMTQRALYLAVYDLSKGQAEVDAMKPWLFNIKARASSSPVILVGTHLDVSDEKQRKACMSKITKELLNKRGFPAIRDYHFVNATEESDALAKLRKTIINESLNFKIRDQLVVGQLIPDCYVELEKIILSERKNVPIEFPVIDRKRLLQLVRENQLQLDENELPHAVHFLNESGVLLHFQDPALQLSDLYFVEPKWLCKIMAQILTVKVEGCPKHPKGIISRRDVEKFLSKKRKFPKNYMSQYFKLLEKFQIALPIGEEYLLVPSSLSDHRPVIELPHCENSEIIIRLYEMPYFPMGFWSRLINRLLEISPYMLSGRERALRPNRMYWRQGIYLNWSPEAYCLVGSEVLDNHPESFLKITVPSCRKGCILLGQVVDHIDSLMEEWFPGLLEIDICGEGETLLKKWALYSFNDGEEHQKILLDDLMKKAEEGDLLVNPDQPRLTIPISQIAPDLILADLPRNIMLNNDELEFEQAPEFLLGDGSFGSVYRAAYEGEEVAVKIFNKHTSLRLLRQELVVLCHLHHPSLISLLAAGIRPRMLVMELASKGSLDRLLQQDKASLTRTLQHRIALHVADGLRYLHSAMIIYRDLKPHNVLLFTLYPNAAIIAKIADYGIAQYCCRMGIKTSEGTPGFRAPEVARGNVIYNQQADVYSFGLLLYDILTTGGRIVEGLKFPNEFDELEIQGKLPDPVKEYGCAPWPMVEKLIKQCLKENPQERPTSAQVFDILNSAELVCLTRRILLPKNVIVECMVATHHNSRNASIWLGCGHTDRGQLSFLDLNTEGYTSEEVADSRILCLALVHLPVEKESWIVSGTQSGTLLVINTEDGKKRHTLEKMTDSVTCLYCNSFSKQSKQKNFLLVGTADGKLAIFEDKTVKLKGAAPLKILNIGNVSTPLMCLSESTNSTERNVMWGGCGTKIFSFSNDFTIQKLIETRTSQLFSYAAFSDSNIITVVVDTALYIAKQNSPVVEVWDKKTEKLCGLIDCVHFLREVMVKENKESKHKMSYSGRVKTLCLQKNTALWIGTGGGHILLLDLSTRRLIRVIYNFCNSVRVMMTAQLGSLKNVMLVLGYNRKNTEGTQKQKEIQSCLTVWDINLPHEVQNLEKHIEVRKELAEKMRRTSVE
Sequence of glycogen synthase kinase 3-beta (GSK3-β) (P49841 whole entry): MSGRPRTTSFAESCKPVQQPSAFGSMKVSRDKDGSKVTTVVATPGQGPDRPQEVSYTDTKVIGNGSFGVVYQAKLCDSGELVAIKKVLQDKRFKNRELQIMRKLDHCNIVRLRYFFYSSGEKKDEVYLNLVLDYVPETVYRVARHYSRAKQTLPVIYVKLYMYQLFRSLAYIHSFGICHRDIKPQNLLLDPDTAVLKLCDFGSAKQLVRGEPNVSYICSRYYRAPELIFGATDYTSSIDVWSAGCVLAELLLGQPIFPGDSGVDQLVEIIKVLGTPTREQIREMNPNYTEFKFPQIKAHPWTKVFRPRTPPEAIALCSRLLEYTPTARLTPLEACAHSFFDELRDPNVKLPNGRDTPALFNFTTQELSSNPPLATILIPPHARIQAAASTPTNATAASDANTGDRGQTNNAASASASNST
Sequence of serine/threonine protein kinase-24 (MST3) (Q9Y6E0 whole entry): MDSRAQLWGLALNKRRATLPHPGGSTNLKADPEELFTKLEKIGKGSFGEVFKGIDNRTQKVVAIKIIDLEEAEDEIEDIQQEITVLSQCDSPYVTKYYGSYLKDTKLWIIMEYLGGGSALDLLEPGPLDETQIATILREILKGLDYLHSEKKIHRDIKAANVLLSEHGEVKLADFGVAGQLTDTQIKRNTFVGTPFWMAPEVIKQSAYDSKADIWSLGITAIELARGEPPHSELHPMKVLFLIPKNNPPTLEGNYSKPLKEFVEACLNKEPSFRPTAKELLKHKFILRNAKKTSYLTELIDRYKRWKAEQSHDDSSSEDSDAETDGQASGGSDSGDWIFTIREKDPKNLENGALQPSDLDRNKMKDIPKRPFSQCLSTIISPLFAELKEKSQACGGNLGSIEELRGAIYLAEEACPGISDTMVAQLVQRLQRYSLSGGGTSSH
Sequence of cyclin-dependent kinase (CDK) 1 (P06493 whole entry): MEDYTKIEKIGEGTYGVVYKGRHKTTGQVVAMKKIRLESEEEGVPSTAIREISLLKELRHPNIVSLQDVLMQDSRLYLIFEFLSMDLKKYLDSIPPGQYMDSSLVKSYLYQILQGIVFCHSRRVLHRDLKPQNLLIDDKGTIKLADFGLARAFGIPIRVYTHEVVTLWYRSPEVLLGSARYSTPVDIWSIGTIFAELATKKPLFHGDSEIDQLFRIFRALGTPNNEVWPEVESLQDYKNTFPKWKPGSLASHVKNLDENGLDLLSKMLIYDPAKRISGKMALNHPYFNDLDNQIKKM
Sequence of cyclin-dependent kinase (CDK) 1 (P14635 whole entry, further chain): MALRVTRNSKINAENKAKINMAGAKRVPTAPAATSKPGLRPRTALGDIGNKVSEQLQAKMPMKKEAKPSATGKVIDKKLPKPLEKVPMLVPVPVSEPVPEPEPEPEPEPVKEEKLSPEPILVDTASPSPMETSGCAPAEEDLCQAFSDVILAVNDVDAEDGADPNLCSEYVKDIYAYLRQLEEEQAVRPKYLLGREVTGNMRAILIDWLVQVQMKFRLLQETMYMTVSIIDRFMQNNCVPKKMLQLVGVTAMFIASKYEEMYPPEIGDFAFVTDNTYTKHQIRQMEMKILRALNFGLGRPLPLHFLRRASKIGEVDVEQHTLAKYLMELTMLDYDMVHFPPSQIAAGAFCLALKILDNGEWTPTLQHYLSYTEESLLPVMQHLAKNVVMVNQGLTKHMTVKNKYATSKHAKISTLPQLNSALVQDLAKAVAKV

inhibition at 10 µM [1]: > 70%
inhibition at 10 µM [2]: > 70%
inhibition at 10 µM [3]: > 70%
inhibition at 10 µM [4]: > 70%
inhibition at 10 µM [5]: > 70%
inhibition at 10 µM [6]: > 70%
inhibition at 10 µM [7]: > 70%
inhibition at 10 µM [8]: > 70%
inhibition at 10 µM [9]: 100%
inhibition at 10 µM [10]: > 70%
SMILES: Cc1cc(C)c2[nH]c(=O)c(-c3[nH]cnc3-c3ccccc3)cc2c1 [DIPQUO]
